{"source": "patent US20230257374A1", "about": "“NOVEL KRAS G12C PROTEIN INHIBITOR, PREPARATION METHOD THEREFOR, AND USE THEREOF” (INNOVENT BIOLOGICS (SUZHOU) CO., LTD., priority 2019, published 2023)", "key": {"[1]": {"system": "H358 cell line (K-RAS G12C)", "assay": "cells", "type": "cell-based, human", "conditions": "Homo sapiens, NCI-H358, 96 h, read-out: H358 (K-RAS G12C) IC50", "method": "(§1) a) On day 1, seed cells were placed in T75 a flask. b) On day 3, the medium was taken out and washed once with DPBS. c) Cells were trypsinized with 2 mL TrypLE™ Express enzyme at room temperature (RT) or 37° C. until cells detached. d) 5 mL of fresh medium was added to suspend the cells, and then the suspension was centrifuged at 1000 rpm and room temperature for 5 min. e) The supernatant was discarded, and the cells were resuspended in 5 mL of fresh medium and counted using Countess™ H. f) The cells were seeded back into the T75 flask for further culture or placed into an assay plate for 3D cell proliferation assay.\n(§2) The cells were seeded at a density of 600 cells/well in a 384-well plate with 40 μL of medium per well and a final DMSO concentration of 0.5%. b) On day 4, a 3D CTG reagent was added to each well, followed by shaking at room temperature for 1 h. c) The signals were recorded using Envision.\n(§3) a) Robustness was examined using 0.5% DMSO and data of blank control medium: H=mean (DMSO); L=mean (medium); SD (H)=STDEV (DMSO); SD (L)=STDEV (medium);\n(§4) Y=peak valley value+(peak top value−peak valley value)/(1+10^((Log IC50−X)×HillSlope));\n(§5) X: logarithm of compound concentration; Y: percent inhibition (% inhibition); Peak top and peak valley values: the plateau period units are the same as Y; log IC50: the same logarithmic unit as X; HillSlope: slope coefficient or Hill slope."}, "[2]": {"conditions": "human, plasma, 5 μM", "quoted_text": "(§6) To examine the stability of the test compounds in plasma, representative compounds were selected for evaluation.\n(§7) Preparation of stock solution: a test compound was dissolved in DMSO to prepare a 1 mM stock solution for later use; Propantheline Bromide was dissolved in acetonitrile to prepare a 1 mM stock solution as a positive control for later use.\n(§8) To each well was added 2 μL of the stock solution of the test compound and the stock solution of the positive control such that the final concentrations were 5 KM and the concentration of the organic solvent was 0.5%. Each compound was prepared in duplicate, followed by incubation at 37° C. 50 μL of samples were taken from the reaction samples in equal amounts at 0, 30, 60, 120, 180 and 240 minutes, and 450 μL of cold acetonitrile containing an internal standard was added to terminate the reaction. […] 100 μL of the supernatants were transferred to a new plate, dilute with ultra-pure water, and analyzed by LC-MS/MS.\n(§9) Data results were calculated according to peak area ratios.\n(§10) The percentage of remaining compound for each time point was calculated as follows:\n(§11) Remaining percentagemin(%)=peak area ratiosmin/peak area ratiomin×100%\n(§12) where peak area ratios represents the peak area ratio of the test compound to the internal standard compound at t min; peak area ratiomin represents the peak area ratio of the test compound to the internal standard compound at 0 min (initial)."}, "[3]": {"system": "MIA PaCa-2 cell line (K-RAS G12C)", "assay": "cells", "type": "cell-based", "conditions": "Homo sapiens, MIA PaCa-2, 96 h, read-out: MIA PaCa-2 (K-RAS G12C) IC50", "method": "as §1, §2, §3, §4, §5"}, "[4]": {"system": "H1373 cell line (K-RAS G12C)", "assay": "cells", "type": "cell-based", "conditions": "Homo sapiens, NCI-H1373, 96 h, read-out: H1373 (K-RAS G12C) IC50", "method": "as §1, §2, §3, §4, §5"}, "in vitro [5]": {"assay": "in vitro", "conditions": "microsomes, pH 7.4", "method": "To examine the in vitro metabolic stability of the test compounds in liver microsomes of different species, representative compounds were selected, and their stability was evaluated by measuring the concentration of the test compounds in the incubation system using LC/MS/MS and calculating their intrinsic clearance in the microsome system.\nThe method is specifically as follows: each compound was first dissolved in DMSO to prepare a 200 μM working solution and added to the system solution at the time of testing to form a solution with a final concentration of 1 μM.\nThe microsomes were stored in a −80° C. freezer.\nPreparation of incubation system: an incubation system was prepared as described in the table below.\n25 μL, of NADPH or phosphate buffered saline was transferred to the incubation system described above, and 2 μL, of 200 μM of the test compound or verapamil was added. The sample with NADPH added was prepared in duplicate; the NADPH negative sample was prepared in single parallel. 30 μL, of suspension was taken at 0.5, 5, 15, 30 and 60 minutes. The reaction system was terminated by adding 180 μL, of acetonitrile containing an internal standard and vortexed for 10 min. […] 100 μL, of the supernatant was transferred to a feeding plate, and 100 μL, of purified water was added. The mixture was well mixed for UPLC-MS/MS analysis.\nThe results based on the data were obtained by calculation according to the peak area ratio, and the peak area was detected through an extracted ion chromatogram.\nThe slope value (k) was determined by linear fitting of the natural logarithm of drug elimination percentage over time."}, "in vitro [6]": {"assay": "in vitro", "conditions": "human, plasma", "quoted_text": "as §6, §7, §8, §9, §10, §11, §12"}, "[7]": {"system": "NCI-H358 tumor (K-RAS G12C mutation)", "type": "in vivo, BALB/c nude mice", "method": "The cells were digested with trypsin-EDTA twice a week for passaging as per conventional practice. When the cell saturation reached 80%-90% and a required amount was achieved, the cells were collected and counted for later use. […] 5% DMSO/5% Solutol/90% water was used as a blank control. 3) Tumor inoculation and drug administration: BALB/c nude mice, female, 6-8 weeks old, weighing 18-20 g. The experiment started after 3-7 days of adaptive feeding. 0.1 mL of NCI-H358 cells (5×10^6 cells) were inoculated subcutaneously on the right back of each mouse. The mice were grouped for administration when the average tumor volume reached approximately 150 mm^3. The animals were weighed before administration and the tumor volume was measured. Grouping was randomly performed according to the tumor volume.\nAnimals were monitored daily for health and death, and routine examinations include observation of the effect of tumor growth and drug treatment on the daily performance of the animals, such as behavioral activities, food and water intake, weight changes (measured once every other day), appearance, or other abnormal conditions. Animal mortality and side effects within each group were recorded based on the number of animals in the group.\nTumor diameters were measured 2-3 times weekly using a vernier caliper.\nThe tumor volume was calculated as follows: […]\nwhere a and b represent the long and short diameters of the tumor, respectively.\nThe anti-tumor therapeutic effect of the compound was evaluated by tumor growth inhibition rate TGI (%) or relative tumor proliferation rate T/C (%).\nTGI (%) was calculated as follows: […]\nT/C (%) was calculated as follows: […]\nwhere TRTV represents the relative tumor volume of the treatment group; CRTV represents the relative tumor volume of the solvent control group.\nBased on the results of tumor measurement, the relative tumor volume (RTV) was calculated as follows: […]\nwhere V0 represents the average tumor volume measured at the time of grouping and administration (i.e., d0), Vt represents the average tumor volume in a certain measurement, and TRTV and CRTV take the data on the same day.\nAfter the completion of the experiment, tumors were weighed, and the percentage of Tweight/Cweight was calculated, where Tweight and Cweight represent the tumor weights of the treatment group and the solvent control group, respectively.\nData calculation and analysis: T test was employed for comparison between two groups. One-way ANOVA was employed for comparison between three or more groups. If there is a significant difference in F-values, multiple comparisons should be made after ANOVA analysis. All data analyses were performed with SPSS 17.0. p<0.05 was defined as a significant difference."}, "[8]": {"conditions": "Day 0 (at grouping, before administration), 15 mg/kg PO QD group"}}}
{"smiles": "[2H]C([2H])([2H])N1CCC[C@H]1COc1nc2c(c(N3CCN(C(=O)C=C)[C@@H](CC#N)C3)n1)CCN(c1cccc3cccc(Cl)c13)C2", "note": "[Compound 41, 2-((S)-1-acryloyl-4-(7-(8-chloronaphthalene-1-yl)-2-(((S)-1-(methyl-d3)pyrrolidin-2-yl)methoxy)-5,6,7,8-tetrahydropyrido[3,4-d]pyrimidin-4-yl)piperazin-2-yl)acetonitrile]", "values": [{"measurement": "IC50", "setting": "[1]", "value": 0.28, "unit": "nM"}, {"measurement": "Remaining percentage (%) 0 min", "setting": "[2]; 0 h", "value": 100.00, "unit": "%"}, {"measurement": "Remaining percentage (%) 30 min", "setting": "[2]; 0.5 h", "value": 96.01, "unit": "%"}, {"measurement": "Remaining percentage (%) 60 min", "setting": "[2]; 1 h", "value": 75.85, "unit": "%"}, {"measurement": "Remaining percentage (%) 120 min", "setting": "[2]; 2 h", "value": 56.99, "unit": "%"}, {"measurement": "Remaining percentage (%) 180 min", "setting": "[2]; 3 h", "value": 34.80, "unit": "%"}, {"measurement": "Remaining percentage (%) 240 min", "setting": "[2]; 4 h", "value": 26.83, "unit": "%"}, {"measurement": "IC50", "setting": "[3]", "value": 0.31, "unit": "nM"}, {"measurement": "IC50", "setting": "[4]", "value": 0.18, "unit": "nM"}, {"measurement": "half-life at 1 μM", "setting": "in vitro [5]; ICR (CD-1), mouse", "value": 14.6, "unit": "min"}, {"measurement": "microsomal CLint at 1 μM", "setting": "in vitro [5]; ICR (CD-1), mouse", "value": 95.3, "unit": "µL/min/mg"}, {"measurement": "half-life at 1 μM", "setting": "in vitro [5]; human", "value": 26, "unit": "min"}, {"measurement": "microsomal CLint at 1 μM", "setting": "in vitro [5]; human", "value": 53.4, "unit": "µL/min/mg"}, {"measurement": "half-life at 5 μM", "setting": "in vitro [6]", "value": 119, "unit": "min"}, {"measurement": "Day 0 Body weight (g) Waverage ± SEM", "setting": "[7]; [8]", "value": "22.7 ± 0.4", "unit": "g"}, {"measurement": "Day 0 Tumor volume (mm^3) Vaverage ± SEM", "setting": "[7]; [8]", "value": "151 ± 8", "unit": "mm^3"}, {"measurement": "Day 21 Body weight (g) Waverage ± SEM", "setting": "[7]; Day 21, 15 mg/kg PO QD", "value": "23.4 ± 0.6", "unit": "g"}, {"measurement": "Day 21 Tumor volume (mm^3) Vaverage ± SEM", "setting": "[7]; Day 21, 15 mg/kg PO QD", "value": "168 ± 20", "unit": "mm^3"}, {"measurement": "Tumor inhibition rate TGI (%)", "setting": "[7]; Day 21, 15 mg/kg PO QD", "value": 97.0, "unit": "%"}, {"measurement": "Tumor regression", "setting": "[7]; Day 21, 15 mg/kg PO QD, animals with regression / group of 8", "value": "2/8"}]}
